The record followed here is article PMC3527104 (Bioorganic & medicinal chemistry, 2012).

The target in data set [1] is T1, α7-nAChRs (Mus musculus, UniProt P49582). Conditions: CD1 mice, i.v.; frontal cortex, thalamus, striatum, hippocampus; post-injection.
Data set [2] deals with T1, α7-nAChRs. Briefly: blocking dissection study with PHA543613 in mice. Conditions: PHA543613 0.5 mg/kg s.c., 15 min before tracer; 90 min after tracer.

T1 sequence (P49582 23-502): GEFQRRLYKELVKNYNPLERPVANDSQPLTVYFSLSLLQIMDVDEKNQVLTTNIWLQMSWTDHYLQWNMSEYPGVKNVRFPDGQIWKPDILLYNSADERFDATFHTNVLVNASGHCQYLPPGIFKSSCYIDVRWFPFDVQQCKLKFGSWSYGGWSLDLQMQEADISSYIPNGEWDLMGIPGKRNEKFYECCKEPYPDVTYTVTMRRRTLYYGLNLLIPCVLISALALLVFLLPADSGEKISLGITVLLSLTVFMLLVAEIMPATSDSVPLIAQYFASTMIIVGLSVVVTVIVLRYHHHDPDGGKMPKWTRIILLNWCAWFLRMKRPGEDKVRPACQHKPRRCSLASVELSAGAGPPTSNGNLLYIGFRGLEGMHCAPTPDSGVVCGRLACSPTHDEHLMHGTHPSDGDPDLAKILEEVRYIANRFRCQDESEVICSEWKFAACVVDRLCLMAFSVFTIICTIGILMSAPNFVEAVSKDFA

For `[11CH3]N1CC2CN(c3ccc(-c4ccc5[nH]ccc5c4)nc3)CC21` (racemic) [[^11C]rac-1, 5-(5-(6-[^11C]methyl-3,6-diazabicyclo[3.2.0]heptan-3-yl)pyridin-2-yl)-1H-indole], the “time of peak radioactivity accumulation” value at α7-nAChRs [1] was found to be 30 min.

As to `O=C(N[C@H]1CN2CCC1CC2)c1cc2ccoc2cn1` [PHA543613], on α7-nAChRs [2], the “blockade of [^11C]rac-1 binding in the cerebellum” value was “minimal”; the “inhibition of [^11C]rac-1 binding in hippocampus and frontal cortex” value is on record as “significantly inhibited”.
